Laboratory results from US5081131A, “Omega-((hetero)alkyl)benz(cd)-indol-2-amines” (American Cyanamid Company, priority 1988, dated 1992).

How the values were obtained:
[1] = target: T1, thromboxane synthetase enzyme (Rattus norvegicus, UniProt P49430); assay: Thromboxane synthetase enzyme inhibition (TXB2 formation in washed platelets, RIA); format: cell-based, spontaneously hypertensive rat; settings: 1×10^-4 Molar; SHR platelets, 10 min at 37° C.
T1 construct: endogenous in cells; host or cells: washed platelets from arterial blood of male Okamoto-Aoki spontaneously hypertensive rats (animals from Taconic Farms, Germantown, N.Y.)
T1 sequence (P49430 1-533): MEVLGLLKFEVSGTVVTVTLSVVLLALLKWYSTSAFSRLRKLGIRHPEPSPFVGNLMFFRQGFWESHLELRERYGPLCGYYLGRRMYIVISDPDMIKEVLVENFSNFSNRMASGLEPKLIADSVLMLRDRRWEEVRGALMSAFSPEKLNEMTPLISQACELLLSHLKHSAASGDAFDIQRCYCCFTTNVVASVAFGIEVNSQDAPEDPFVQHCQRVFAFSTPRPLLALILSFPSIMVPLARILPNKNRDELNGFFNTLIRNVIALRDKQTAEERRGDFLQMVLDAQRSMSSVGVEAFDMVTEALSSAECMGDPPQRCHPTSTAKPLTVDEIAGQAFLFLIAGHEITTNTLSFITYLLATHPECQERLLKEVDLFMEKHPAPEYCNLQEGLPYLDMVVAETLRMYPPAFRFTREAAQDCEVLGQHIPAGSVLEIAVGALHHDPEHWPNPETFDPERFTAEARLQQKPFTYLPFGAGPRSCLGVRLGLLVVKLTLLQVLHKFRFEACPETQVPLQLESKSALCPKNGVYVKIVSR

[2] = system: spontaneously hypertensive rats; assay: Hypotensive activity in spontaneously hypertensive rats (MABP); format: in vivo, rat (Okamoto strain); settings: SHR, gavage, two doses of 10 mg/kg or less 24 h apart, MABP at 28 h; average baseline 160±1.5 mm Hg
Outline: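 Male 16-week Okamoto spontaneously hypertensive rats dosed by gavage in 2% starch at 10 mg/kg or less with 0.9% NaCl loading 25 ml/kg; identical dose without saline given 24 hours later. Mean arterial blood pressure measured 28 hours after first dose; 1 to 4 rats per compound.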

[3] = system: thevetin-induced arrhythmia in guinea pigs; assay: Thevetin (cardiac glycoside)-induced arrhythmia in guinea pigs; format: in vivo, guinea pig; settings: IV dose 10 mg/kg; saline 22.91±0.5 minutes
Protocol: Male guinea pigs, weighing 300-500 g each, from Summit View Farms, Belvidere, N.J., were anesthetized by intraperitoneal adminstration of urethan at 1500 mg/kg. The animals were then restrained in a supine position. Electrocardiogram leads were attached to the four limbs and Lead II of the electrocardiogram was monitored.
The neck region was exposed and the jugular vein was cannulated. The test compounds were dissolved in saline and administered intravenously at the indicated doses, via a cannula which was then flushed with saline. Five minutes after the test compound was administered, thevetin dissolved in saline was administered by infusion through a cannula at a dose of 0.1 mg/kg/minute in a volume of 0.1 ml. The time until the P wave of the electrocardiogram disappeared was determined.

Structure (SMILES): Cl.Cl.c1cc2c3c(cccc3c1)C(NCCCn1ccnc1)=N2 [N-(3-(1H-imidazol-1-yl)propyl)benz(cd)indol-2-amine, dihydrochloride]
- % Inhibition (Thromboxane Synthetase Enzyme Inhibition) [1]: 85%
- Avg. MABP in mm Hg (No. of Rats) [2]: 87 mm Hg
- Time (Minutes) Before Induced Arrhythmia [3]: 48.5 min
